Values quoted from earlier work, collected in article PMC3983201, “6-Methoxyflavanones as Bitter Taste Receptor Blockers for hTAS2R39” (PLoS ONE, 2014).
Read-outs that look alike come from different tables or passages of the source.

Columns and labels:
hTAS2R31 = test system: hTAS2R31; set-up: method as in PMID 22059530; conditions: cited from earlier work
hTAS2R39 = biological target: T1, hTAS2R39 (Homo sapiens, UniProt P59534); set-up: method as in PMID 24117141; conditions: cited from earlier work
T1 construct: first 45 amino acids of rat somatostatin receptor type 3 (sst3 membrane-targeting tag) (N); expressed in transfected cells; host or cells: HEK293 T-Rex Flp-In cells stably expressing Gα16-gust44; receptor in pcDNA5/FRT, induced with doxycycline
T1 sequence (P59534 1-338): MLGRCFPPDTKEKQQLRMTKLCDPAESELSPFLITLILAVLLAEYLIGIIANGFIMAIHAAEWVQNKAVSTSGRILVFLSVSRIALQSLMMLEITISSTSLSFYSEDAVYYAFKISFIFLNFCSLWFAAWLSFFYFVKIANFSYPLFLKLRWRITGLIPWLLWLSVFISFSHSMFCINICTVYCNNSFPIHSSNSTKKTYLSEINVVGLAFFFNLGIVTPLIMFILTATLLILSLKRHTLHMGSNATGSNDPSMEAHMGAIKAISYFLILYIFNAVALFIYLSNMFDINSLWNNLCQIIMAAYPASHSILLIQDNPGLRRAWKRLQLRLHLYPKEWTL

bitter taste = test system: bitter taste; set-up: method as in PMID 16028996; conditions: in-vivo sensory masking, unknown mechanism; cited from earlier work

Q: With `COc1cc2c(c(O)c1OC)C(=O)C[C@@H](c1ccc(O)cc1)O2` [6-methoxysakuranetin, reference compound] as the compound, how does the “antagonism of hTAS2R31” value (hTAS2R31) read?
A: Its value is “antagonists for hTAS2R31”.

Q: Which “activation of hTAS2R39 in a previous study” value (hTAS2R39) does the source give for `COc1cc([C@@H]2CC(=O)c3c(O)cc(O)cc3O2)ccc1O` [Compound 7, Homoeriodictyol] here?
A: The value was “a activated hTAS2R39 in a previous study [16], but was selected for testing as antagonist due to ability to reduce bitter taste perception in sensory tests [9]”.

Q: What about the “reduction of the bitter taste of different chemical classes of bitter molecules” value (bitter taste) of the same compound?
A: The value was “up to 40%”.

Q: What does the source list for `COc1cc(O)c2c(c1)O[C@H](c1ccc(O)cc1)CC2=O` [Compound 14, Sakuranetin]?
A: antagonism of hTAS2R31 (hTAS2R31): c reported as antagonist of hTAS2R31 [10].; antagonism of hTAS2R31 (hTAS2R31; listed as sakuranetin): antagonists for hTAS2R31
